Test [1] deals with HCV replicon (BB7 sequence) in Huh-7-Clone A cells. As to the kind of experiment: HCV replicon assay: ELISA of NS5A protein in replicon-containing cells (Inhibition of Viral RNA Replication). Conditions: Hepatitis C virus; HCV replicon, range of EC50; read-out: Replicon. It counts as cell-based. In a few lines: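 Huh-7-Clone A cells carrying subgenomic BB7 HCV replicon (G418-selectable) incubated 72 h with compound. NS5A protein quantified by cell ELISA: glutaraldehyde fixation, anti-NS5A monoclonal plus HRP secondary, TMB read at OD 650 nm. EC50 derived from 8-point serial dilution dose curve.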
In general terms: In antiviral work, replicon cells carry a viral genome segment that copies itself.

In another test the target is T1, HCV NS5B (Hepatitis C virus genotype 1b, UniProt Q9WMX2).
T1 construct: fusion protein, of which the carboxyl terminal 21 amino acids were removed to enhance its solubility; His tag (GSHHHHHH); made in house; host or cells: E. coli
As to the kind of experiment: Inhibition of viral RNA-dependent RNA polymerase (RdRp), in vitro biochemical assay. Set-up: species or system HCV genotype 1b virus (BB7). Conditions: HCV NS5B RdRp, BB7; reported as range class; read-out: HCV pol-BB7 IC50. In a few lines: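 Purified recombinant NS5B from a genotype 1b consensus (BB7), His-tagged, E. coli-expressed, with the C-terminal 21 residues deleted. Inhibition of RdRp activity in vitro was measured, and IC50 is the concentration giving 50% inhibition.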

SMILES strings stand for the structures.

For orientation: IC50 means the point on the concentration scale where inhibition reaches its midpoint.

In the case of `C=CCN(c1cc2oc(-c3ccc(F)cc3)c(C(=O)NC)c2cc1OC(C)C)S(C)(=O)=O` [Example 195, 6-(Allyl-methanesulfonyl-amino)-2-(4-fluoro-phenyl)-5-isopropoxy-benzofuran-3-carboxylic acid methylamide], the EC50 in test [1] is < 1000 nM. The IC50 at HCV NS5B is ≤ 500 nM.
As for `CNC(=O)c1c(-c2ccc(F)cc2)oc2cc(C(C)=O)c(OC(C)C)cc12` [Example 196, 6-Acetyl-2-(4-fluoro-phenyl)-5-isopropoxy-benzofuran-3-carboxylic acid methyladime], in test [1], the EC50 was < 1000 nM. Further, on HCV NS5B, the IC50 was ≤ 500 nM.
The like results for `CC(C)NC(=O)c1c(-c2ccc(F)cc2)oc2cc(NS(C)(=O)=O)c(OC(C)C)cc12` [Example 197, 2-(4-Fluoro-phenyl)-5-isopropoxy-6-methanesulfonylamino-benzofuran-3-carboxylic acid isopropylamide] were, in that order, < 10000 nM and 5000 to 30000 nM.
The like results for `CNC(=O)c1c(-c2ccc(F)cc2)oc2cc(-c3noc(C)n3)c(OC(C)C)cc12` [Example 198, 2-(4-Fluoro-phenyl)-5-isopropoxy-6-(5-methyl-[1,2,4]oxadiazol-3-yl)-benzofuran-3-carboxylic acid methylamide] were, in that order, < 1000 nM and ≤ 500 nM.
As to `CC(C)Oc1cc2c(C(=O)NC3CC3)c(-c3ccc(F)cc3)oc2cc1NS(C)(=O)=O` [Example 199, 2-(4-Fluoro-phenyl)-5-isopropoxy-6-methanesulfonylamino-benzofuran-3-carboxylic acid cyclopropylamide], the EC50 in test [1] was < 1000 nM. In addition, the IC50 on HCV NS5B is ≤ 500 nM.
On to `CCNC(=O)c1c(-c2ccc(F)cc2)oc2cc(NS(C)(=O)=O)c(OC(C)C)cc12` [Example 200, 2-(4-Fluoro-phenyl)-5-isopropoxy-6-methanesulfonylamino-benzofuran-3-carboxylic acid ethylamide], for which the EC50 in test [1] was < 1000 nM. The IC50 at HCV NS5B is ≤ 500 nM.
Turning to `CNC(=O)c1c(-c2ccc(F)cc2)oc2cc(N3CCOCC3)c(OCc3csc(C)n3)cc12` [Example 201, 2-(4-Fluoro-phenyl)-5-(2-methyl-thiazol-4-ylmethoxy)-6-morpholin-4-yl-benzofuran-3-carboxylic acid methylamide], the EC50 in test [1] was < 1000 nM. At HCV NS5B, the IC50 is ≤ 500 nM.
Consider `CNC(=O)c1c(-c2ccc(F)cc2)oc2cc(C(C)(C)O)c(OC(C)C)cc12` [Example 202, 2-(4-Fluoro-phenyl)-6-(1-hydroxy-1-methyl-ethyl)-5-isopropoxy-benzofuran-3-carboxylic acid methylamide], for which the EC50 in test [1] was < 1000 nM. Also, the IC50 at HCV NS5B is ≤ 500 nM.
Take `CNC(=O)c1c(-c2ccc(F)cc2)oc2cc(N3CCOCC3)c(OCc3noc(-c4c(C)noc4C)n3)cc12` [Example 203, 5-[5-(3,5-Dimethyl-isoxazol-4-yl)-[1,2,4]oxadiazol-3-ylmethoxy]-2-(4-fluoro-phenyl)-6-morpholin-4-yl-benzofuran-3-carboxylic acid methylamide]: in test [1], the EC50 was < 10000 nM. Besides, the IC50 on HCV NS5B was 500 to 5000 nM.
The corresponding values for `CNC(=O)c1c(-c2ccc(F)cc2)oc2cc(N3CCOCC3)c(OCc3noc(C(C)(C)C)n3)cc12` [Example 204, 5-(5-tert-Butyl-[1,2,4]oxadiazol-3-ylmethoxy)-2-(4-fluoro-phenyl)-6-morpholin-4-yl-benzofuran-3-carboxylic acid methylamide] are < 1000 nM and ≤ 500 nM.
The corresponding values for `CNC(=O)c1c(-c2ccc(F)cc2)oc2cc(-c3ncon3)c(OC(C)C)cc12` [Example 205, 2-(4-Fluoro-phenyl)-5-isopropoxy-6-[1,2,4]oxadiazol-3-yl-benzofuran-3-carboxylic acid methylamide] are < 1000 nM and ≤ 500 nM.

For the origin of these results see patent publication US7265152B2 (ViroPharma Incorporated, priority 2002, dated 2007).
